Data from PubChem BioAssay AID248 (DTP/NCI, 2004).
Several values for one entry are separate records, joined by “and”; a condition that tells them apart may be missing. Equal values may be shown once. Toxic doses and inconclusive results are not listed. Cut-off read from the data, not from the text of the source: active = T/C of 150% or more; inactive = T/C below 125%.

Tested on: L1210 leukemia ip in BDF1 mice, survival T/C
Assay: NCI In Vivo Anticancer Drug Screen. Data for tumor model L1210 Leukemia (intraperitoneal) in B6D2F1 (BDF1) mice
Conditions: endpoint: mean survival time, higher = longer survival
Outline: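 Read-out is survival time, reported as the treated-group measurement over the vehicle-control measurement.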

[1] = dose: 100.0 mg/kg/injection, schedule: Q04DX002 (ip), vehicle: Klucel (hydroxypropylcellulose) (HPC)
[2] = dose: 200.0 mg/kg/injection, schedule: Q04DX002 (ip), vehicle: Klucel (hydroxypropylcellulose) (HPC)
[3] = dose: 400.0 mg/kg/injection, schedule: Q04DX002 (ip), vehicle: Klucel (hydroxypropylcellulose) (HPC)
[4] = dose: 100.0 mg/kg/injection, schedule: Q04DX003 (ip), vehicle: saline with Tween-80
[5] = dose: 100.0 mg/kg/injection, schedule: Q01DX001 (ip), vehicle: saline
[6] = dose: 200.0 mg/kg/injection, schedule: Q01DX001 (ip), vehicle: saline
[7] = dose: 400.0 mg/kg/injection, schedule: Q01DX001 (ip), vehicle: saline
[8] = dose: 100.0 mg/kg/injection, schedule: Q01DX009 (ip), vehicle: Klucel (hydroxypropylcellulose) (HPC)
[9] = dose: 100.0 mg/kg/injection, schedule: Q04DX003 (ip), vehicle: Klucel (hydroxypropylcellulose) (HPC)
[10] = dose: 200.0 mg/kg/injection, schedule: Q01DX009 (ip), vehicle: Klucel (hydroxypropylcellulose) (HPC)
[11] = dose: 200.0 mg/kg/injection, schedule: Q04DX003 (ip), vehicle: Klucel (hydroxypropylcellulose) (HPC)
[12] = dose: 400.0 mg/kg/injection, schedule: Q01DX009 (ip), vehicle: Klucel (hydroxypropylcellulose) (HPC)
[13] = dose: 400.0 mg/kg/injection, schedule: Q04DX003 (ip), vehicle: Klucel (hydroxypropylcellulose) (HPC)
[14] = dose: 50.0 mg/kg/injection, schedule: Q01DX001 (ip), vehicle: saline
[15] = dose: 25.0 mg/kg/injection, schedule: Q01DX009 (ip), vehicle: saline with Tween-80
[16] = dose: 100.0 mg/kg/injection, schedule: Q04DX003 (ip), vehicle: saline
[17] = dose: 200.0 mg/kg/injection, schedule: Q04DX003 (ip), vehicle: saline
[18] = dose: 400.0 mg/kg/injection, schedule: Q04DX003 (ip), vehicle: saline

Measured: T/C

CCCCCCCCC(=O)N1CCCCC1C (centres undefined)
inactive: [1] 96 % of control | [2] 100 % of control | [3] 88 % of control

CC1Cc2ccccc2C1=O (centres undefined)
inactive: [4] 98 % of control | dose: 200.0 mg/kg/injection, schedule: Q04DX003 (ip), vehicle: saline with Tween-80 98 % of control | dose: 400.0 mg/kg/injection, schedule: Q04DX003 (ip), vehicle: saline with Tween-80 103 % of control

Cc1ccc(S(=N)(=O)C2CC2)cc1 (centres undefined)
inactive: [5] 95 % of control | [6] 93 % of control | [7] 103 % of control

CC(=O)OCC1C2c3ccccc3C(c3ccccc32)C1CBr (centres undefined)
inactive: [8] 91 % of control | [9] 93 % of control | [10] 94 % of control | [11] 94 % of control | [12] 88 % of control | [13] 98 % of control

Cc1ccc(S(=O)(=O)OCCN(CCOS(=O)(=O)c2ccc(C)cc2)S(=O)(=O)c2ccc(C)cc2)cc1
inactive: [8] 94 % of control | [9] 94 % of control | [10] 89 % of control | [11] 91 % of control | [12] 96 % of control | [13] 91 % of control

N#CC(Cl)(Cl)C(N)=O
inactive: dose: 12.5 mg/kg/injection, schedule: Q04DX002 (ip), vehicle: saline 88 % of control

CCOC(=O)c1ccc2c3c(ccc([N+](=O)[O-])c13)CC2
inactive: [14] 98 % of control | [5] 104 % of control | [6] 101 % of control | [7] 98 % of control

CCCC1CC=CCC12C(=O)NC(=O)NC2=O (centres undefined)
inactive: [5] 103 % of control | [6] 97 % of control | [7] 97 % of control

C(/C=N/Nc1cnccn1)=N\Nc1cnccn1
inactive: [8] 89 % of control | [10] 89 % of control | [12] 110 % of control

O=C(C=C(C(F)(F)F)C(F)(F)F)c1cccc(C(F)(F)F)c1
inactive: dose: 12.5 mg/kg/injection, schedule: Q01DX009 (ip), vehicle: saline with Tween-80 102 % of control | [15] 95 % of control | [4] 89 % of control

N#CCn1c(C(F)(F)F)nc2nc(Cl)c(Cl)nc21
inactive: [15] 98 % of control | dose: 50.0 mg/kg/injection, schedule: Q01DX009 (ip), vehicle: saline with Tween-80 98 % of control | dose: 100.0 mg/kg/injection, schedule: Q01DX009 (ip), vehicle: saline with Tween-80 96 % of control | [4] 98 % of control

O=C(O)C1OC1(c1ccccc1Cl)c1ccccc1Cl (centres undefined)
inactive: [14] 101 % of control | [5] 95 % of control | [6] 98 % of control | [7] 104 % of control

COC(=O)CNC(=O)C1CSC(C)(C)N1C=O (centres undefined)
inactive: [16] 104 % of control | [17] 101 % of control | [18] 98 % of control

O=C(CSc1ccc([N+](=O)[O-])cn1)c1ccc(Br)cc1
inactive: [16] 102 % of control | [17] 98 % of control | [18] 102 % of control

C=COC(=O)c1ccccc1 (tested in a mixture with another compound)
inactive: dose: 100.0 mg/kg/injection, schedule: Q01DX001 (ip), vehicle: other 97 % of control | [5] 110 % of control [middle of 4 runs] | dose: 200.0 mg/kg/injection, schedule: Q01DX001 (ip), vehicle: other 97 % of control | [6] 97 % of control and 105 % of control and 108 % of control | dose: 400.0 mg/kg/injection, schedule: Q01DX001 (ip), vehicle: other 86 % of control | [7] 101 % of control and 105 % of control and 108 % of control

Cc1ccccc1CC1(Br)CC(C)(C)c2ccccc2C1=O (centres undefined)
inactive: [9] 93 % of control | [11] 106 % of control | [13] 88 % of control

O=CNO
inactive: dose: 50.0 mg/kg/injection, schedule: Q01DX001 (ip), vehicle: water 100 % of control | dose: 100.0 mg/kg/injection, schedule: Q01DX001 (ip), vehicle: water 110 % of control | dose: 200.0 mg/kg/injection, schedule: Q01DX001 (ip), vehicle: water 96 % of control | dose: 400.0 mg/kg/injection, schedule: Q01DX001 (ip), vehicle: water 107 % of control

O=C1CC2OCC=C3CN4CCC56c7ccccc7N1C5C2C3CC46 (centres undefined) (tested in a mixture with another compound)
inactive: dose: 0.12 mg/kg/injection, schedule: Q04DX003 (ip), vehicle: saline + Tween-80 + alkali 102 % of control | dose: 0.12 mg/kg/injection, schedule: Q04DX003 (ip), vehicle: saline 104 % of control | dose: 0.19 mg/kg/injection, schedule: Q04DX003 (ip), vehicle: alcohol 106 % of control | dose: 0.19 mg/kg/injection, schedule: Q04DX003 (ip), vehicle: saline + Tween-80 + alkali 100 % of control | dose: 0.19 mg/kg/injection, schedule: Q04DX003 (ip), vehicle: saline 104 % of control | dose: 0.25 mg/kg/injection, schedule: Q04DX003 (ip), vehicle: Klucel (hydroxypropylcellulose) (HPC) 101 % of control | dose: 0.28 mg/kg/injection, schedule: Q04DX003 (ip), vehicle: saline + Tween-80 + alkali 98 % of control | dose: 0.28 mg/kg/injection, schedule: Q04DX003 (ip), vehicle: saline 104 % of control | dose: 0.39 mg/kg/injection, schedule: Q01DX009 (ip), vehicle: saline 98 % of control and 95 % of control | dose: 0.39 mg/kg/injection, schedule: Q04DX003 (ip), vehicle: alcohol 103 % of control | dose: 0.5 mg/kg/injection, schedule: Q04DX003 (ip), vehicle: Klucel (hydroxypropylcellulose) (HPC) 93 % of control | dose: 0.75 mg/kg/injection, schedule: Q01DX009 (ip), vehicle: Klucel (hydroxypropylcellulose) (HPC) 92 % of control | dose: 0.78 mg/kg/injection, schedule: Q01DX009 (ip), vehicle: saline 101 % of control and 110 % of control | dose: 0.78 mg/kg/injection, schedule: Q04DX003 (ip), vehicle: alcohol 103 % of control | dose: 0.78 mg/kg/injection, schedule: Q04DX003 (ip), vehicle: saline + alcohol 102 % of control | dose: 0.78 mg/kg/injection, schedule: Q04DX003 (ip), vehicle: saline 100 % of control | dose: 1.0 mg/kg/injection, schedule: Q04DX003 (ip), vehicle: Klucel (hydroxypropylcellulose) (HPC) 101 % of control | dose: 1.5 mg/kg/injection, schedule: Q01DX009 (ip), vehicle: Klucel (hydroxypropylcellulose) (HPC) 97 % of control | dose: 1.5 mg/kg/injection, schedule: Q04DX003 (ip), vehicle: Klucel (hydroxypropylcellulose) (HPC) 100 % of control | dose: 1.56 mg/kg/injection, schedule: Q01DX009 (ip), vehicle: saline 90 % of control and 100 % of control | dose: 1.56 mg/kg/injection, schedule: Q04DX003 (ip), vehicle: alcohol 93 % of control | dose: 1.56 mg/kg/injection, schedule: Q04DX003 (ip), vehicle: saline + alcohol 93 % of control | dose: 1.56 mg/kg/injection, schedule: Q04DX003 (ip), vehicle: saline 93 % of control | dose: 6.0 mg/kg/injection, schedule: Q04DX003 (ip), vehicle: Klucel (hydroxypropylcellulose) (HPC) 110 % of control

O=C(OCc1ccccc1CN1CCCC1)c1ccc(Cl)cc1
inactive: [1] 111 % of control | [2] 96 % of control | [3] 111 % of control
